Where “and” joins values, the source holds several entries; their conditions need not be identical. Equal entries are not always repeated.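 Briefly, cells in 96-well plates were exposed to five compound concentrations for 48 h, and endpoints were estimated by linear interpolation. GI50 is the concentration that inhibits growth by half. The concentration for full growth arrest is given as TGI.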
What was measured:
Test in all cases: inhibition of tumour cell growth, NCI panel, 48 h
SK-MEL-28 melanoma = system: SK-MEL-28 melanoma
K-562 leukemia = system: K-562 leukemia
T-47D breast = system: T-47D breast
NCI-H460 lung = system: NCI-H460 lung
U251 CNS = system: U251 CNS
KM12 colon = system: KM12 colon
COLO 205 colon = system: COLO 205 colon
HOP-92 NSCLC = system: HOP-92 NSCLC
HOP-62 NSCLC = system: HOP-62 NSCLC
SR leukemia = system: SR leukemia
UO-31 renal = system: UO-31 renal
DU-145 prostate = system: DU-145 prostate
MOLT-4 leukemia = system: MOLT-4 leukemia
MCF7 breast = system: MCF7 breast
CCRF-CEM leukemia = system: CCRF-CEM leukemia
OVCAR-4 ovarian = system: OVCAR-4 ovarian
NCI/ADR-RES ovarian = system: NCI/ADR-RES ovarian
BT-549 breast = system: BT-549 breast
NCI-H522 lung = system: NCI-H522 lung
UACC-257 melanoma = system: UACC-257 melanoma
SF-295 CNS = system: SF-295 CNS
OVCAR-5 ovarian = system: OVCAR-5 ovarian
SNB-75 CNS = system: SNB-75 CNS
MDA-MB-435 = system: MDA-MB-435
A549 NSCLC = system: A549 NSCLC
SW-620 colon = system: SW-620 colon
SF-539 CNS = system: SF-539 CNS
HS 578T breast = system: HS 578T breast
ACHN renal = system: ACHN renal
M14 melanoma = system: M14 melanoma
SK-MEL-2 melanoma = system: SK-MEL-2 melanoma
786-0 renal = system: 786-0 renal
MALME-3M melanoma = system: MALME-3M melanoma
SF-268 CNS = system: SF-268 CNS
A498 renal = system: A498 renal
SK-OV-3 ovarian = system: SK-OV-3 ovarian
MDA-MB-231 breast = system: MDA-MB-231 breast
LOX IMVI melanoma = system: LOX IMVI melanoma
SNB-19 CNS = system: SNB-19 CNS
RXF 393 renal = system: RXF 393 renal
RPMI-8226 leukemia = system: RPMI-8226 leukemia
UACC-62 melanoma = system: UACC-62 melanoma
HCT-15 colon = system: HCT-15 colon
HCT-116 colon = system: HCT-116 colon
HL-60(TB) leukemia = system: HL-60(TB) leukemia
SN12C renal = system: SN12C renal
CAKI-1 renal = system: CAKI-1 renal
NCI-H226 lung = system: NCI-H226 lung
IGROV1 ovarian = system: IGROV1 ovarian
OVCAR-3 ovarian = system: OVCAR-3 ovarian
NCI-H23 lung = system: NCI-H23 lung
OVCAR-8 ovarian = system: OVCAR-8 ovarian
EKVX NSCLC = system: EKVX NSCLC
HT29 colon = system: HT29 colon

## Nc1ccn([C@@H]2O[C@H](COP(=O)(O)O[C@@H]3C[C@H](n4cc(F)c(=O)[nH]c4=O)O[C@@H]3COP(=O)(O)O[C@@H]3C[C@H](n4cc(F)c(=O)[nH]c4=O)O[C@@H]3COP(=O)(O)O[C@@H]3C[C@H](n4cc(F)c(=O)[nH]c4=O)O[C@@H]3COP(=O)(O)O[C@@H]3C[C@H](n4cc(F)c(=O)[nH]c4=O)O[C@@H]3COP(=O)(O)O[C@@H]3C[C@H](n4cc(F)c(=O)[nH]c4=O)O[C@@H]3COP(=O)(O)O[C@@H]3C[C@H](n4cc(F)c(=O)[nH]c4=O)O[C@@H]3COP(=O)(O)O[C@@H]3C[C@H](n4cc(F)c(=O)[nH]c4=O)O[C@@H]3COP(=O)(O)O[C@@H]3C[C@H](n4cc(F)c(=O)[nH]c4=O)O[C@@H]3COP(=O)(O)O[C@@H]3C[C@H](n4cc(F)c(=O)[nH]c4=O)O[C@@H]3COP(=O)(O)O[C@@H]3C[C@H](n4cc(F)c(=O)[nH]c4=O)O[C@@H]3COP(=O)(O)OCCOCCOCCOCCOCCOCCO)[C@H](O)C2O)c(=O)n1 (stereo not given in full)
SK-MEL-28 melanoma
  TGI: 21.1 µM and > 100 µM
K-562 leukemia
  GI50: 0.489 µM and 0.0858 µM
  TGI: 21.1 µM and > 100 µM
T-47D breast
  TGI: 21.1 µM and > 100 µM
NCI-H460 lung
  GI50: 0.00211 µM
  TGI: 21.1 µM and > 100 µM
U251 CNS
  GI50: 0.0101 µM
  TGI: 21.1 µM and > 100 µM
KM12 colon
  GI50: 0.178 µM
  TGI: 21.1 µM
COLO 205 colon
  GI50: 0.00973 µM
  TGI: 21.1 µM and > 100 µM
HOP-92 NSCLC
  GI50: 3.86 µM and 14.1 µM
  TGI: 21.1 µM and > 100 µM
HOP-62 NSCLC
  GI50: 0.00841 µM
  TGI: 21.1 µM and > 100 µM
SR leukemia
  GI50: 0.621 µM
  TGI: 21.1 µM and > 100 µM
UO-31 renal
  GI50: 0.00659 µM
  TGI: 6.57 µM and 7.3 µM
DU-145 prostate
  GI50: 0.0185 µM and 0.0254 µM
  TGI: 21.1 µM and > 100 µM
MOLT-4 leukemia
  GI50: 0.0246 µM and 0.0443 µM
  TGI: 21.1 µM and > 100 µM
MCF7 breast
  GI50: 0.00211 µM
  TGI: 21.1 µM and > 100 µM
CCRF-CEM leukemia
  GI50: 0.0101 µM and 0.0175 µM
  TGI: 21.1 µM and > 100 µM
OVCAR-4 ovarian
  GI50: > 21.1 µM and 89.5 µM
  TGI: > 100 µM
NCI/ADR-RES ovarian
  GI50: 0.0146 µM and 0.0121 µM
  TGI: 21.1 µM and > 100 µM
BT-549 breast
  GI50: 0.674 µM and 0.568 µM
  TGI: 21.1 µM and > 100 µM
NCI-H522 lung
  TGI: 21.1 µM and > 100 µM
UACC-257 melanoma
  GI50: 0.11 µM and 0.062 µM
  TGI: 21.1 µM and > 100 µM
SF-295 CNS
  GI50: 0.00328 µM
  TGI: 21.1 µM and > 100 µM
OVCAR-5 ovarian
  GI50: > 100 µM
  TGI: > 100 µM
SNB-75 CNS
  GI50: 4.33 µM and 10.3 µM
  TGI: 21.1 µM and > 100 µM
MDA-MB-435
  GI50: 1.28 µM and 0.233 µM
  TGI: 21.1 µM and > 100 µM
A549 NSCLC
  GI50: 0.00284 µM
  TGI: 21.1 µM and > 100 µM
SW-620 colon
  GI50: 4.23 µM and 2.6 µM
  TGI: 21.1 µM and > 100 µM
SF-539 CNS
  GI50: 0.00565 µM
  TGI: 21.1 µM and > 100 µM
HS 578T breast
  GI50: > 100 µM
  TGI: > 100 µM
ACHN renal
  GI50: 0.00745 µM
  TGI: 21.1 µM and > 100 µM
M14 melanoma
  GI50: 0.00911 µM and 0.0126 µM
  TGI: 2.56 µM and 4.9 µM
SK-MEL-2 melanoma
  TGI: > 100 µM
786-0 renal
  GI50: 0.00777 µM and 0.0131 µM
  TGI: 21.1 µM and > 100 µM
MALME-3M melanoma
  GI50: 2.37 µM and 11.8 µM
  TGI: 21.1 µM and > 100 µM
SF-268 CNS
  GI50: 0.00514 µM
  TGI: 21.1 µM and > 100 µM
A498 renal
  GI50: 0.0204 µM and 0.0631 µM
  TGI: 21.1 µM and > 100 µM
SK-OV-3 ovarian
  GI50: 0.011 µM and 0.0185 µM
  TGI: 21.1 µM and > 100 µM
MDA-MB-231 breast
  TGI: 21.1 µM and > 100 µM
LOX IMVI melanoma
  GI50: 0.0054 µM
  TGI: 21.1 µM and > 100 µM
SNB-19 CNS
  GI50: 0.0721 µM and 0.0219 µM
  TGI: 21.1 µM and > 100 µM
RXF 393 renal
  GI50: 0.846 µM and 0.684 µM
  TGI: 21.1 µM and 70.4 µM
RPMI-8226 leukemia
  GI50: 0.332 µM and 1.71 µM
  TGI: 21.1 µM and > 100 µM
UACC-62 melanoma
  GI50: 0.00557 µM and 0.0279 µM
HCT-15 colon
  GI50: 0.697 µM and 0.179 µM
  TGI: 21.1 µM and > 100 µM
HCT-116 colon
  GI50: 0.013 µM
  TGI: 21.1 µM and > 100 µM
HL-60(TB) leukemia
  TGI: 21.1 µM and > 100 µM
SN12C renal
  GI50: 0.0124 µM
  TGI: 21.1 µM
CAKI-1 renal
  GI50: 0.00832 µM
  TGI: 21.1 µM and > 100 µM
NCI-H226 lung
  GI50: 9.21 µM and 24.6 µM
  TGI: 21.1 µM and > 100 µM
IGROV1 ovarian
  GI50: 1.63 µM and 1.45 µM
  TGI: 21.1 µM and > 100 µM
OVCAR-3 ovarian
  GI50: > 100 µM
  TGI: > 100 µM
NCI-H23 lung
  GI50: 0.0255 µM and 0.0445 µM
  TGI: 21.1 µM and > 100 µM
OVCAR-8 ovarian
  GI50: 0.0132 µM
  TGI: 21.1 µM and > 100 µM
EKVX NSCLC
  TGI: > 100 µM
HT29 colon
  GI50: 0.0171 µM
  TGI: 21.1 µM and > 100 µM
